Measurements from ChEMBL document CHEMBL5052818, “Aminopyrimidine derivatives as ctps1 inhibitors” (2019).

test: Inhibition of C-terminal FLAG-His-tagged full length human CTPS1 measured after 60 mins by ADP-Glo assay

IC50 [nM] | SMILES
> 1000 | O=C(Cc1nc(NS(=O)(=O)C2CC2)ncc1F)Nc1ccc(-c2cccnc2)cc1
≤ 100 | CC(C)Oc1cncc(-c2ccc(NC(=O)Cc3ccnc(NS(=O)(=O)C4CC4)n3)cc2)n1
> 100 | CC(C)Oc1cncc(-c2ccc(NC(=O)C(C)(C)c3ccnc(NS(C)(=O)=O)n3)c(F)c2)n1
> 1000 | CC(C)(C(=O)Nc1ccc(-c2cccc(Cl)c2)cc1)c1ccnc(NS(=O)(=O)C2CC2)n1
≤ 100 | CC(C)(C(=O)Nc1ccc(-c2cncc(C(F)(F)F)n2)cc1F)c1ccnc(NS(=O)(=O)C2CC2)n1
≤ 100 | CCOc1cncc(-c2ccc(NC(=O)C(C)(C)c3ccnc(NS(=O)(=O)C4CC4)n3)c(OC)c2)n1
> 100 | CC(C)(C(=O)Nc1ccc(-c2cncc(C#N)c2)cc1)c1ccnc(NS(=O)(=O)C2CC2)n1
> 100 | CCOc1cncc(-c2ccc(NC(=O)C(C)(C)c3ccnc(NS(=O)(=O)CC)n3)cc2)n1
> 10000 | CCOc1cccc(-c2ccc(NC(=O)C(C)(C)c3ccnc(NS(=O)(=O)C4CC4)n3)cc2)c1
≤ 100 | CC(C)Oc1cncc(-c2ccc(NC(=O)Cc3ccnc(NS(=O)(=O)C4CC4)n3)c(F)c2)n1
> 1000 | CC(C)(C(=O)Nc1ccc(-c2cccnc2)cc1)c1ccnc(NS(=O)(=O)C2CC2)n1
> 100 | CCOc1cncc(-c2ccc(NC(=O)C(C)(C)c3ccnc(NS(=O)(=O)CC)n3)c(F)c2)n1
> 100 | CCC(C(=O)Nc1ccc(-c2cncc(C(F)(F)F)c2)cc1)c1ccnc(NS(=O)(=O)C2CC2)n1 (stereo unspecified)
> 100 | CCOc1cncc(-c2ccc(NC(=O)C(C)(C)c3ccnc(NS(=O)(=O)C4CCC4)n3)nc2)n1
> 100 | CCOc1cncc(-c2cnc(NC(=O)C(C)(C)c3ccnc(NS(C)(=O)=O)n3)c(F)c2)n1
≤ 100 | CCOc1cncc(-c2ccc(NC(=O)C3(c4ccnc(NS(=O)(=O)C5CC5)n4)CC3)cc2)n1
≤ 100 | CCOc1cncc(-c2cnc(NC(=O)C(C)(C)c3ccnc(NS(=O)(=O)C4CC4)n3)c(F)c2)n1
> 100 | CCOc1cncc(-c2ccc(NC(=O)C(C)(C)c3nc(NS(=O)(=O)C4CC4)ncc3F)cc2)n1
≤ 100 | CCOc1cncc(-c2ccc(NC(=O)C(C)(C)c3ccnc(NS(=O)(=O)C4CC4)n3)c(Cl)c2)n1
> 100 | CCOc1cncc(-c2cc(C)c(NC(=O)C(C)(C)c3ccnc(NS(=O)(=O)C4CC4)n3)cc2F)n1
≤ 100 | O=C(Cc1ccnc(NS(=O)(=O)C2CC2)n1)Nc1ccc(-c2cncc(C(F)(F)F)n2)cc1
> 100 | CC(C)(C(=O)Nc1ccc(-c2cncc(F)c2)cc1)c1ccnc(NS(=O)(=O)C2CC2)n1

IC50 [nM] | SMILES
≤ 100 | CCOc1cncc(-c2ccc(NC(=O)C(CC)(CC)c3ccnc(NS(=O)(=O)C4CC4)n3)cc2)n1
> 1000 | CC(C)(C(=O)Nc1ccc(-c2cccc(C(F)(F)F)c2)cc1)c1ccnc(NS(=O)(=O)C2CC2)n1
> 100 | CC(C)Oc1cncc(-c2ccc(NC(=O)C(C)(C)c3ccnc(NS(=O)(=O)C4CC4)n3)c(F)c2)c1
> 1000 | CC(C)Oc1cncc(-c2ccc(NC(=O)C(C)(C)c3ccnc(NS(C)(=O)=O)n3)c(F)c2)c1
≤ 100 | O=C(Cc1ccnc(NS(=O)(=O)C2CC2)n1)Nc1ccc(-c2cncc(C(F)(F)F)n2)cc1F
≤ 100 | O=C(Cc1ccnc(NS(=O)(=O)C2CC2)n1)Nc1ccc(-c2cncc(OCC(F)(F)F)n2)cc1
> 1000 | CCC(C(=O)Nc1ccc(-c2cccnc2)cn1)c1ccnc(NS(=O)(=O)C2CC2)n1 (stereo unspecified)
> 100 | CC(C)(C(=O)Nc1ccc(-c2cncc(C(F)(F)F)c2)cc1)c1ccnc(NS(=O)(=O)C2CC2)n1
> 100 | CC(C)Oc1cncc(-c2ccc(NC(=O)C(C)(C)c3ccnc(NS(=O)(=O)C4CCC4)n3)c(F)c2)n1
> 1000 | CCOc1cncc(-c2ccc(NC(=O)C(C)(C)c3nc(NS(=O)(=O)C4CC4)ncc3C)cc2)n1
> 100 | O=C(Cc1ccnc(NS(=O)(=O)C2CC2)n1)Nc1ccc(-c2cccnc2)cc1
> 100 | Cc1cc(-c2cncc(C(F)(F)F)n2)ccc1NC(=O)C(C)(C)c1ccnc(NS(C)(=O)=O)n1
> 1000 | CC(C)(C(=O)Nc1ccc(-c2cccnc2)cn1)c1ccnc(NS(=O)(=O)C2CC2)n1
> 100 | COc1cncc(-c2ccc(NC(=O)C(C)(C)c3ccnc(NS(=O)(=O)C4CCC4)n3)cc2)n1
≤ 100 | COc1cncc(-c2ccc(NC(=O)Cc3ccnc(NS(=O)(=O)C4CC4)n3)cc2)n1
≤ 100 | CC(C)Oc1cncc(-c2ccc(NC(=O)C(C)(C)c3ccnc(NS(=O)(=O)C4CC4)n3)cc2)n1
≤ 100 | CCOc1cncc(-c2ccc(NC(=O)C(C)(C)c3ccnc(NS(=O)(=O)C4CC4)n3)cc2)n1
> 100 | CCOc1cncc(-c2cc(C)c(NC(=O)C(C)(C)c3ccnc(NS(=O)(=O)C4CC4)n3)cc2C)n1
> 100 | CCOc1cncc(-c2ccc(NC(=O)C(C)(C)c3ccnc(NS(=O)(=O)C4CCC4)n3)c(C)c2)n1
≤ 100 | CC(C)Oc1cncc(-c2ccc(NC(=O)C(C)(C)c3ccnc(NS(=O)(=O)C4CC4)n3)c(F)c2)n1
≤ 100 | CCOc1cncc(-c2ccc(NC(=O)C(C)(C)c3ccnc(NS(=O)(=O)C4CC4)n3)c(C#N)c2)n1
≤ 100 | CC(C)(C(=O)Nc1ccc(-c2cncc(C(F)(F)F)n2)cc1)c1ccnc(NS(=O)(=O)C2CC2)n1

IC50 [nM] | SMILES
> 1000 | O=C(Cc1ccnc(NS(=O)(=O)C2CC2)n1)Nc1ccc(-c2ccccc2)cc1
> 1000 | CC(C)(C(=O)Nc1ccc(-c2cccc(C#N)c2)cc1)c1ccnc(NS(=O)(=O)C2CC2)n1
≤ 100 | CCOc1cncc(-c2ccc(NC(=O)C(C)(C)c3ccnc(NS(=O)(=O)C4CC4)n3)c(F)c2)n1
≤ 100 | CCOc1cncc(-c2ccc(NC(=O)C(C)(C)c3ccnc(NS(C)(=O)=O)n3)cc2)n1
> 100 | CCOc1cncc(-c2ccc(NC(=O)C(C)(C)c3ccnc(NS(=O)(=O)C4CC4)n3)c(C)c2C)n1
> 1000 | CC(C)(C(=O)Nc1ccc(-c2cncnc2)cc1)c1ccnc(NS(=O)(=O)C2CC2)n1
> 100 | CCC(C(=O)Nc1ccc(-c2cncc(C(F)(F)F)c2)cn1)c1ccnc(NS(=O)(=O)C2CC2)n1 (stereo unspecified)
> 100 | CC(C)(C(=O)Nc1ccc(-c2cncc(C(F)(F)F)n2)cc1)c1ccnc(NS(C)(=O)=O)n1
> 1000 | CC(C)(C(=O)Nc1ccc(-c2cnccn2)cc1)c1ccnc(NS(=O)(=O)C2CC2)n1
> 100 | CC(C)Oc1cncc(-c2ccc(NC(=O)C(C)(C)c3ccnc(NS(=O)(=O)C4CC4)n3)cc2)c1
> 100 | O=C(Cc1ccnc(NS(=O)(=O)C2CC2)n1)Nc1ccc(-c2cncc(C(F)(F)F)c2)cc1
> 100 | Cc1cncc(-c2ccc(NC(=O)C(C)(C)c3ccnc(NS(=O)(=O)C4CC4)n3)cc2)c1
≤ 100 | CCOc1cncc(-c2cc(F)c(NC(=O)C(C)(C)c3ccnc(NS(=O)(=O)C4CC4)n3)c(F)c2)n1
> 1000 | CCOc1cncc(-c2ccc(NC(=O)C(C)(C)c3ccnc(NS(=O)(=O)C(C)(C)C)n3)cc2)n1
> 1000 | Cc1cncc(-c2ccc(NC(=O)C(C)(C)c3ccnc(NS(C)(=O)=O)n3)c(C)c2)n1
≤ 100 | CC(C)Oc1cncc(-c2ccc(NC(=O)C(C)(C)c3ccnc(NS(=O)(=O)C4CC4)n3)nc2)n1
≤ 100 | COc1cncc(-c2ccc(NC(=O)C(C)(C)c3ccnc(NS(=O)(=O)C4CC4)n3)cc2)n1
≤ 100 | CCOc1cncc(-c2ccc(NC(=O)C(C)(C)c3ccnc(NS(=O)(=O)C4CC4)n3)nc2)n1
≤ 100 | CC(C)(C(=O)Nc1ccc(-c2cncc(OC3CC3)n2)cn1)c1ccnc(NS(=O)(=O)C2CC2)n1
> 100 | CCOc1cncc(-c2ccc(NC(=O)C(C)(C)c3ccnc(NS(=O)(=O)C4CCC4)n3)cc2)n1
≤ 100 | CCOc1cncc(-c2ccc(NC(=O)C3(c4ccnc(NS(=O)(=O)C5CC5)n4)CCCC3)cc2)n1
> 100 | Cc1cc(-c2cncc(C(F)(F)F)n2)ccc1NC(=O)C(C)(C)c1ccnc(NS(=O)(=O)C2CC2)n1

IC50 [nM] | SMILES
> 100 | CC(C)(C(=O)Nc1ccc(-c2cncc(OC3CC3)n2)cc1)c1ccnc(NS(=O)(=O)C2CC2)n1
> 100 | CC(C)(C(=O)Nc1ccc(-c2cncc(Cl)c2)cc1)c1ccnc(NS(=O)(=O)C2CC2)n1
> 100 | COc1cncc(-c2ccc(NC(=O)C(C)(C)c3ccnc(NS(=O)(=O)C4CC4)n3)cc2)c1
> 100 | CCOc1cncc(-c2ccc(NC(=O)C(C)(C)c3ccnc(NS(=O)(=O)C4(C)CC4)n3)cc2)n1
> 100 | CCOc1cncc(-c2cc(OC)c(NC(=O)C(C)(C)c3ccnc(NS(=O)(=O)C4CC4)n3)cc2F)n1
> 100 | CCOc1cncc(-c2ccc(NC(=O)C(C)(C)c3ccnc(NS(=O)(=O)C4CC4)n3)cc2)c1
> 100 | O=C(Cc1ccnc(NS(=O)(=O)C2CC2)n1)Nc1ccc(-c2cncc(OCC(F)(F)F)c2)cc1
≤ 100 | CC(C)(C(=O)Nc1ccc(-c2cncc(C(F)(F)F)n2)cn1)c1ccnc(NS(=O)(=O)C2CC2)n1
> 100 | CCOc1cncc(-c2ccc(NC(=O)C(C)(C)c3ccnc(NS(C)(=O)=O)n3)nc2)n1
> 100 | CCC(C(=O)Nc1ccc(-c2cncc(OCC(F)(F)F)c2)cn1)c1ccnc(NS(=O)(=O)C2CC2)n1 (stereo unspecified)
> 1000 | CC(C)(C(=O)Nc1ccc(-c2cnccn2)cc1F)c1ccnc(NS(=O)(=O)C2CC2)n1
≤ 100 | CCOc1cncc(-c2ccc(NC(=O)Cc3ccnc(NS(=O)(=O)C4CC4)n3)cc2)n1
≤ 100 | CCOc1cncc(-c2ccc(NC(=O)C(C)(C)c3ccnc(NS(=O)(=O)C4CC4)n3)c(OC(F)(F)F)c2)n1
> 100 | CCC(C(=O)Nc1ccc(-c2cncc(Cl)c2)cc1)c1ccnc(NS(=O)(=O)C2CC2)n1 (stereo unspecified)
> 100 | CCC(C(=O)Nc1ccc(-c2cnccn2)cc1F)c1ccnc(NS(=O)(=O)C2CC2)n1 (stereo unspecified)
> 100 | CCOc1cncc(-c2ccc(NC(=O)C(C)(C)c3ccnc(NS(=O)(=O)C4CC4)n3)nc2)c1
> 100 | CCOc1cncc(-c2cc(F)c(NC(=O)C(C)(C)c3ccnc(NS(=O)(=O)C4CC4)n3)cc2C)n1
≤ 100 | CC(C)(C(=O)Nc1ccc(-c2cncc(OC(F)F)c2)cc1)c1ccnc(NS(=O)(=O)C2CC2)n1
> 1000 | CC(C)(C(=O)Nc1ccc(-c2cccnc2)cc1F)c1ccnc(NS(=O)(=O)C2CC2)n1
> 100 | CCS(=O)(=O)Nc1nccc(C(C)(C)C(=O)Nc2ccc(-c3cncc(C(F)(F)F)n3)cc2)n1
